Experimental data: patent US20020155172A1, “Methods and compounds for decreasing cell toxicity or death” (priority 2000, published 2002)

Key:
[1] = system: Q79-GFP aggregates; assay: Decrease of pre-formed Q79-GFP aggregates in vitro; assay type: biochemical
Description: Q79-GFP was expressed and purified from bacteria using standard molecular biology techniques. These fusion proteins form aggregates in vitro which can be viewed under an inverted fluorescence microscope. The Q79-GFP aggregates were administered Congo red (1 nM to 100 μM) and the ability of Congo red to decrease the aggregate was visually assessed.
This assay was also carried out on Q79-GFP aggregates that were administered compounds known to disrupt other types of aggregates, for example, beta-amyloid fibril aggregates. The Q79-GFP aggregates were administered Iota-carrageenan, dextran, minocycline, rolitetracycline, or Chrysamine G Congo red (100 μM each), and visually examined for the effect of each compound on disruption of the aggregate, as well as the density and size of the aggregates.

[2] = system: R62 mice; assay: Dyskinesia of the hindlimbs, gait and stride length (ink test); assay type: in vivo
Description: FIG. 10D is a set of scanned images of the effect of Congo red or PBS (vehicle) on motor coordination, as assessed by the “ink” test in HD transgenic mice three weeks after Congo red or vehicle treatment. The “ink” test was used to determine the changes in stride length and the overlap of steps characteristic of movement disorders using red and green food coloring to mark the front and back paws, respectively. Changes in stride length of individual mice from one set of paws (brackets) and the differences in the step overlapping patterns (open arrows) three weeks after vehicle or Congo red treatment were assayed.
FIG. 10E is a table of the quantification of changes in stride length in HD transgenic mice treated with either Congo red or PBS (vehicle) (#, n=5 in each cohort), assessed as described in FIG. 10D.
(§1) In addition, the ability of Congo red to inhibit the formation as well as to disrupt preformed polyglutamine oligomers allowed us to examine the role of polyglutamine aggregates in neuronal dysfunction and degeneration characteristic of polyglutamine expansion diseases. In these studies, we used the animal model of Huntington's disease (R62), which expresses the truncated form of huntingtin with 139 CAG repeats Mangiarini et al. (supra). We took advantage of our finding that in addition to inhibiting polyglutamine oligomerization, Congo red also disrupts pre-formed oligomers, thus allowing assessment of the impact of Congo red on disease progression after formation of polyglutamine aggregates and the onset of symptoms. R62 transgenic mice and CBAxC57B1/6 F1 wild type littermates were obtained from Jackson Laboratories (Bar Harbor, Me.) at the age of five weeks. […]
(§2) The initial abnormal neurological signs of R62 mice include dyskinesia of the hindlimbs when mice were suspended by the tail, and irregular gait. […] The effect of Congo red on motor performance in R62 mice was also assessed by rotarod studies. […]

[3] = system: R62 mice; assay: Survival; assay type: in vivo; details: infused intraperitoneally
Description: FIG. 10G is a graph of the effect of PBS (vehicle; delivered intraperitoneally) or Congo red, infused intraperitoneally, on survival of HD transgenic mice.
as §1, §2

[4] = system: R62 transgenic mice; assay: Rotorod, muscle strength, first study; assay type: in vivo; details: R62Tg mice; 10 rpm, maximum 60 seconds; versus R62Tg without Congo red
Description: FIG. 9 is a graph showing the effect of intraperitoneal injection of Congo red on the motor performance in the mouse model of Huntington's disease (R62). Wild type mice or R62 transgenic mice carrying a polyglutamine repeat (R62Tg) were injected with either 0.5 ml of 1 mg/ml Congo red in phosphate buffered saline (PBS) or PBS alone and tested for their muscle strength by measuring their ability to remain on the rotorod at 10 rpm for a maximum period of 60 seconds.
Transgenic R62 mice that express the human Huntington's disease gene (carrying a 139-157 CAG repeat; Mangiarini et al., Cell 87:493-506, 1996; Carter et al., J. Neurosci. 19:3248-3257, 1999; and Levine et al., J. Neurosci. Res. 58:515-532, 1999) were used to examine the effects of Congo red on cell death or toxicity. […]
The latter procedure involved administration of 0.25 μl of the drug (1 mg/ml in 0.4% DMSO) per hour, for a period of at least 28 days. […] Polyglutamine inclusions were readily detected at the beginning of treatment. The effect of Congo red on the polyglutamine-induced toxicity in muscle strength in the animal model R62 was quantified by the use of a rotorod.
The mice were trained every day for a week after which time the latency to fall from a rotorod at a speed of 10 rpm was measured for each mouse, with a maximum time of 60 seconds per trial, as described by Carter et al., (J. Neurosci. 19:3248-3257, 1999). […]

[5] = system: HSP40 and HSP70; assay: Expression of chaperone proteins; assay type: cell-based; details: Q79-expressing (HA-Q79) HeLa cells
Description: We examined whether the destabilizing effect of Congo red on polyglutamine oligomers in HeLa cells expressing expanded polyglutamine repeats was caused indirectly through increased expression of endogenous chaperones (FIG. 5E). Lysates from Congo red-treated or control cells expressing expanded polyglutamine repeats (HA-[…]) were separated by SDS-PAGE and probed with anti-HSP70, anti-HSP40, and anti-HA antibodies to detect polyglutamine repeats.

[6] = ink test three weeks after treatment

## Nc1c(/N=N/c2ccc(-c3ccc(/N=N/c4cc(S(=O)(=O)O)c5ccccc5c4N)cc3)cc2)cc(S(=O)(=O)O)c2ccccc12 [Congo red, diphenyldiazo-bis-alpha-napthylaminesulfonate]
[1]; 1 nM to 100 μM, visually assessed
  decrease of pre-formed polyglutamine aggregates: decreased the pre-formed polyglutamine aggregates
[1]; 100 μM each, visually examined
  dissolution or disruption of pre-formed expanded polyglutamine repeat aggregates: dissolution or disruption of pre-formed expanded polyglutamine repeat aggregates were detected
[2]
  dyskinesia of the hindlimbs: significantly inhibited the dyskinesia of the hindlimbs
[2]; [6]
  gait: preserved the normal gait
  stride length: preserved the normal gait (FIG. 10D) and stride length
[3]
  mean survival length: 106 days
[4]
  ability to remain on the rotorod: exhibited a better ability to remain on the rotorod
[5]
  expression of HSP40 or HSP70: did not induce the expression of HSP40 or HSP70
